From US20090221653A1, “7-(2-amino-1-hydroxy-ethyl)-4-hydroxybenzothiazol-2(3H)-one-derivatives as beta2 adrenoreceptor agonists” (AstraZeneca AB, priority 2005, published 2009)
Where a name gives a salt, the structure may show the parent alone.

Assays:
[1] = target: T1, recombinant human Dopamine Subtype D2s receptors (Homo sapiens, UniProt P14416); test: Dopamine D2 selectivity assay, inhibition of [3H]-spiperone binding; details: membranes, [3H]-spiperone 0.16 nM; read-out: D2 bind pIC50 (converted)
T1 construct: purchased Perkin Elmer
Procedure: Membranes containing recombinant human Dopamine Subtype D2s receptors were obtained from Perkin Elmer. These were diluted in Assay Buffer ([…] HEPES, 1 mM EDTA, 120 mM NaCl, 0.1% gelatin, pH 7.4) to provide a final concentration of membranes that gave a clear window between maximum and minimum specific binding.
Assays were performed in U-bottomed 96-well polypropylene plates. […] For each assay plate 8 replicates were obtained for [^3H]-spiperone binding in the presence of 30 μL vehicle (10% (v/v) DMSO in Assay Buffer; defining maximum binding) or 30 μL Haloperidol (10 μM final concentration; defining non-specific binding (NSB)). Membranes were then added to achieve a final volume of 300 μL. The plates were incubated for 2 hours at room temperature and then filtered onto PEI coated GF/B filter plates, pre-soaked for 1 hour in Assay Buffer, using a 96-well plate Tomtec cell harvester. Five washes with 250 μL wash buffer (50 mM HEPES, 1 mM EDTA, 120 mM NaCl, pH 7.4) were performed at 4° C. to remove unbound radioactivity. The plates were dried then sealed from underneath using Packard plate sealers and MicroScint-O (50 μL) was added to each well. The plates were sealed (TopSeal A) and filter-bound radioactivity was measured with a scintillation counter (TopCount, Packard BioScience) using a 3-minute counting protocol. Total specific binding (B0) was determined by subtracting the mean NSB from the mean maximum binding. NSB values were also subtracted from values from all other wells.

Adrenergic β2 = target: T2, Adrenergic β2 (Homo sapiens, UniProt P07550); test: Alternative Adrenergic β2 Mediated cAMP Production in H292 cells (AlphaScreen cAMP detection); type: cell-based; details: for β2 Int Act: fraction relative to the maximum activity determined for formoterol, 60 minutes incubation; for EC50: cAMP, test compounds incubated 60 minutes, 300 μM rolipram, read-out: β2 pEC50 (converted)
T2 construct: endogenous in cells; host or cells: H292 cells
Procedure: H292 cells were grown in 225 cm2 flasks incubator at 37° C., 5% CO2 in RPMI medium containing, 10% (v/v) FBS (foetal bovine serum) and 2 mM L-glutamine.
Adherent H292 cells were removed from tissue culture flasks by treatment with Accutase™ cell detachment solution for 15 minutes. Flasks were incubated for 15 minutes in a humidified incubator at 37° C., 5% CO2. Detached cells were re-suspended in RPMI media (containing 10% (v/v) FBS and 2 mM L-glutamine) at 0.05×10^6 cells per mL. 5000 cells in 100 μL were added to each well of a tissue-culture-treated 96-well plate and the cells incubated overnight in a humidified incubator at 37° C., 5% CO2. The culture media was removed and cells were washed twice with 100 μL assay buffer and replaced with 50 μL assay buffer (HBSS solution containing 10 mM HEPES pH7.4 and 5 mM glucose). […] Cells were incubated with rolipram for 10 minutes after which time test compounds were added and the cells were incubated for 60 minutes at room temperature. […] The reaction was stopped by removing supernatants, washing once with 100 μL assay buffer and replacing with 50 μL lysis buffer. The cell monolayer was frozen at −80° C. for 30 minutes (or overnight).
The concentration of cAMP (cyclic adenosine monophosphate) in the cell lysate was determined using AlphaScreen™ methodology. The frozen cell plate was thawed for 20 minutes on a plate shaker then 10 μL of the cell lysate was transferred to a 96-well white plate. 40 μL of mixed AlphaScreen™ detection beads pre-incubated with biotinylated cAMP, was added to each well and the plate incubated at room temperature for 10 hours in the dark. The AlphaScreen™ signal was measured using an EnVision spectrophotometer (Perkin-Elmer Inc.) with the recommended manufacturer's settings. cAMP concentrations were determined by reference to a calibration curve determined in the same experiment using standard cAMP concentrations. Concentration response curves for agonists were constructed and data was fitted to a four parameter logistic equation to determine both the pEC50 and Intrinsic Activity.

β2 receptor = target: T3, β2 receptor (Homo sapiens, UniProt P07550); test: Adrenergic β2 mediated cAMP production in H292 cells (AlphaScreen cAMP detection); type: cell-based; details: for Intrinsic Activity: fraction relative to the maximum activity determined for formoterol, 10 minutes incubation; for EC50: cAMP, test compounds incubated 10 minutes, 300 μM rolipram
T3 construct: endogenous in cells; host or cells: H292 cells
Procedure: H292 cells were grown in RPMI (Roswell Park Memorial Institute) medium containing, 10% (v/v) FBS (foetal bovine serum) and 2 mM L-glutamine. Cells were grown in 225 cm2 flasks containing 25 mL media in a humidified incubator at 37° C., 5% CO2. Cells were harvested from the flask and passaged at a 1 in 10 dilution once per week.
The media from flasks containing H292 cells was removed, rinsed with 10 mL PBS (phosphate buffered saline) and replaced with 10 mL Accutase™ cell detachment solution. Flasks were incubated for 15 minutes in a humidified incubator at 37° C., 5% CO2. The cell suspension was counted and the cells re-suspended in RPMI media (containing 10% (v/v) FBS and 2 mM L-glutamine) at 0.05×10^6 cells per mL. 5000 cells in 100 μL were added to each well of a tissue-culture-treated 96-well plate and the cells incubated overnight in a humidified incubator at 37° C., 5% CO2. The culture media was removed, washed twice with 100 μL assay buffer and replaced with 50 μL assay buffer. Cells were rested at room temperature for 20 minutes after which time 25 μL of rolipram (1.2 mM made up in assay buffer containing 2.4% (v/v) dimethylsulphoxide) was added. Cells were incubated with rolipram for 10 minutes after which time test compounds (made up as ×4 concentrated stocks in assay buffer containing 4% (v/v) dimethylsulphoxide) were added and the cells were incubated for 10 minutes at room temperature. Final rolipram concentration in the assay was 300 μM and final vehicle concentration was 1.6% (v/v) dimethylsulphoxide. The reaction was stopped by removing supernatants, washing once with 100 μL assay buffer and replacing with 50 μL lysis buffer. The cell monolayer was frozen at −80° C. for 30 minutes (or overnight).
The concentration of cAMP (cyclic adenosine monophosphate) in the cell lysate was determined using the AlphaScreen™ methodology. The frozen cell plate was thawed for 20 minutes on a plate shaker then 10 μL of the cell lysate was transferred to a 96-well white plate. 40 μL of mixed AlphaScreen™ detection beads (containing equal volumes of donor beads (pre-incubated with biotinylated cAMP in the dark for 30 minutes) and acceptor beads), was added to each well and the plate incubated at room temperature for 10 hours in the dark. The AlphaScreen™ signal was measured using an EnVision spectrophotometer (Perkin-Elmer Inc.) with the recommended manufacturer's settings. cAMP concentrations were determined by reference to a calibration curve determined in the same experiment using standard cAMP concentrations (made up in lysis buffer in a 96-well tissue-culture-treated plate and frozen/thawed alongside the test samples) and detected using the same protocol. Concentration response curves for agonists were constructed to determine both the pEC50 and Intrinsic Activity.

T2 sequence (P07550 whole entry): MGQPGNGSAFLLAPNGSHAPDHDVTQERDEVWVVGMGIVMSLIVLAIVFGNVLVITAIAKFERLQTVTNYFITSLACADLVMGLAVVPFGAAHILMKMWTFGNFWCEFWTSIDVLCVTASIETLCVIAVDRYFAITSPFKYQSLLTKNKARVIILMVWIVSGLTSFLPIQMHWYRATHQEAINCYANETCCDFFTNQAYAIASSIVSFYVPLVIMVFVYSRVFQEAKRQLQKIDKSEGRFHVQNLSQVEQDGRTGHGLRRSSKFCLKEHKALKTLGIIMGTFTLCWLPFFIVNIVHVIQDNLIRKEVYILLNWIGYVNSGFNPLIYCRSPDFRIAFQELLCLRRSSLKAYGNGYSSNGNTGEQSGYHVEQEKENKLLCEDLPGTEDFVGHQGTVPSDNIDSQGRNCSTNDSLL
T3 sequence (P07550 whole entry): as above
T1 sequence (P14416 1-414 isoform P14416-2): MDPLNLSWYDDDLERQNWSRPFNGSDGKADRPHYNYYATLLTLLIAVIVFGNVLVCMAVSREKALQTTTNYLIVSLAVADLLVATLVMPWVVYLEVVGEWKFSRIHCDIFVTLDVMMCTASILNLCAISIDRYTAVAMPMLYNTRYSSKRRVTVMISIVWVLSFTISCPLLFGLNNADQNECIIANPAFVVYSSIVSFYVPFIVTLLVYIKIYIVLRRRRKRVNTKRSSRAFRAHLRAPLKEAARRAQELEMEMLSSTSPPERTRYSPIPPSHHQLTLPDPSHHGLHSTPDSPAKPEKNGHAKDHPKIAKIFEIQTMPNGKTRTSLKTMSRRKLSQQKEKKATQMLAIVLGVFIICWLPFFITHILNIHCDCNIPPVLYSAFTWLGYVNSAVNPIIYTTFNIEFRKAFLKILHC

| IC50 [1] [nM] | β2 Int Act (Adrenergic β2) | Intrinsic Activity (β2 receptor) | EC50 (Adrenergic β2) [nM] | EC50 (β2 receptor) [nM] | SMILES |
| --- | --- | --- | --- | --- | --- |
| 1000 | 1 | 1.0 |  |  | Cl.O=c1[nH]c2c(O)ccc([C@@H](O)CNCCSCCCOCCc3ccccc3)c2s1 [Example 8, 4-Hydroxy-7-{(1R)-1-hydroxy-2-[(2-{[3-(2-phenylethoxy)propyl]thio}-ethyl)amino]ethyl}-1,3-benzothiazol-2(3H)-one hydrochloride] |
|  | 0.9 | 0.7 | 0.0501 | 0.0631 | Cl.O=c1[nH]c2c(O)ccc([C@@H](O)CNCCCSCCCOCCc3ccc(Br)cc3)c2s1 [Example 5, 7-((1R)-2-{[3-({3-[2-(4-Bromophenyl)ethoxy]propyl}thio)propyl]amino}-1-hydroxyethyl)-4-hydroxy-1,3-benzothiazol-2(3-H)-one hydrochloride] |
|  | 1 | 0.8 | 3.16 | 5.01 | CN(CCCSCCNC[C@H](O)c1ccc(O)c2[nH]c(=O)sc12)CCc1ccccc1 [Example 12, 4-Hydroxy-7-((1R)-1-hydroxy-2-{[2-({3-[methyl(2-phenylethyl)amino]propyl}-thio)ethyl]amino}ethyl)-1,3-benzothiazol-2(3H)-one trifluoroacetate] |
